Results published in US20160045606A1, “PARTIALLY-DENATURED PROTEIN HYDROGELS” (Northwestern University, priority 2014, published 2016).
Entries after “also recorded” stand apart in the source; their conditions may differ.

Experiments:
N-form albumin = N-form albumin (Bos taurus, UniProt P02769); test: atRA binding by tryptophan fluorescence quenching at 340 nm, BSA at pH 7.4; parameters: species or system bovine
Protocol: (§1) All trans retinoic acid (atRA, 82625, Sigma, St. Louis, 206 MO) was added to solutions of BSA with molar ratio concentrations including 0:1, 0.08:1, 0.1:1, 0.13:1, 0.2:1, 0.4:1, 0.8:1, 1.2:1, 1.6:1, and 2:1 (atRA:BSA). A baseline fluorescence intensity of BSA at pH 7.4 and 3.5 measured at 340 nm with excitation at 295 nm was recorded (n=4 for each molar ratio concentration) as reported in the literature (Maiti et al. Int J Biol Macromol. 2006; 38(3-5):197-202; herein incorporated by reference in its entirety) using the plate reader Tecan Safire II (Tecan, Maennedorf, Switzerland). Then, atRA binding to BSA at pH 7.4 and 3.5 was assessed immediately after the addition of atRA at the different molar ratios. For measuring atRA release from hydrogel disks, a higher molar ratio concentration of 8:1 (atRA:BSA) was used when incorporating atRA into BSA precursor solutions before gelation. Precursor solutions were processed as normal to fabricate atRA-loaded PBSA and TBSA hydrogel disks with a final volume of 0.5 mL. Disks were submerged in 10 mL PBS at 37° C. for atRA release studies. Eluates were collected and replaced at 1, 3, 6, 12, 24, 48, 72, 144, and 240 hour sampling times and fluorescence intensity of atRA at 340 nm and BSA at 280 nm was collected with a NanoDrop™ 2000 C Spectrophotometer (ThermoScientific™, Waltham, Mass.).

F-form albumin = F-form albumin (Bos taurus, UniProt P02769); test: atRA binding by tryptophan fluorescence quenching at 340 nm, BSA at pH 3.5; parameters: species or system bovine; details: pH 3.5, excitation 295 nm
Chain of F-form albumin (P02769 25-607): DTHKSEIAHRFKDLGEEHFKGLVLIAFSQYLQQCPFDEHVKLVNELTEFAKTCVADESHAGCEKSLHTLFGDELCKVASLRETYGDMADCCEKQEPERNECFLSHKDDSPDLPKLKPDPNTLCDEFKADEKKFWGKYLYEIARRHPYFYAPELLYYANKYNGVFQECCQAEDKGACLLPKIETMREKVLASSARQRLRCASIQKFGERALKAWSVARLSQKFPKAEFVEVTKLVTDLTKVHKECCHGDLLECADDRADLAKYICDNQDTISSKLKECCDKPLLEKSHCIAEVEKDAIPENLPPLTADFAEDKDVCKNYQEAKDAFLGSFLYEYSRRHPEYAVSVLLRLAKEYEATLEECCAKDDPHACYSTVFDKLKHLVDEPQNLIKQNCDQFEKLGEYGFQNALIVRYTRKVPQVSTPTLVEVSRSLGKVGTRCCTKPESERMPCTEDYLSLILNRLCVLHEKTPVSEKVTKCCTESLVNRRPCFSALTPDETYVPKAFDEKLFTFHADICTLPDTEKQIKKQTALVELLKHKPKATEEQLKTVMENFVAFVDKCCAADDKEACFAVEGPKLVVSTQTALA
Protocol: as §1

[1] = tested on: Human aortic smooth muscle cells (HASMC); test: Scratch test migration assay; format: cell-based; details: cells exposed directly to 25 ng/mL atRA in media, 24 hr scratch wound, serum starved, vs negative control
Protocol: Human aortic smooth muscle cells (HASMC) (Lonza, Basel, Switzerland) (passage 5) were cultured in SmGM-2 media. All cells were cultured at 37° C. in a humidified incubator containing 5% CO2. HASMCs (seeding density 1×10^4 cells/cm2) were seeded onto TCP surfaces and grown until 90% confluent. Cell culture media was changed every 2 days until confluence after which serum-free SmGM-2 media was used to create a nutrient starved environment for 24 hrs. A vertical scratch was made with a sterile 200 uL pipette tip in the confluent HASMC layer, rinsed with warm PBS, and replaced with 1 mL SmGM-2 media. The underside of the dish was marked near the wound area to aid in identification. Wells were randomly placed into 4 groups which received either a 100 uL dose of eluted material from atRA loaded PBSA or TBSA release study at day 10, a 100 uL dose of 24 ng atRA dissolved in PBS, or a control 100 uL of PBS. A light microscope (Nikon Eclipse TE2000-U) was used to capture images using Image Pro 5.0 software (MediaCybernetics, Bethesda, Md.) of the wound area immediately at day 0 and at various times until the control wound closed at 24 hrs. Wound areas were determined using an automated wound area measurement macro with the ImageJ 1.43r software (NIH, Bethesda, Md.). The measurement of migration was determined by subtracting the cell-free area at day 0 from the cell-free area at 24 hrs. […]

[2] = biological target: N-form albumin (TRP 213 atRA binding site) (Homo sapiens, UniProt P02768); details: literature estimate (Maiti et al. 2006), TRP 213 site on N-form albumin; cited from earlier work
Chain of N-form albumin (TRP 213 atRA binding site) (P02768 25-609): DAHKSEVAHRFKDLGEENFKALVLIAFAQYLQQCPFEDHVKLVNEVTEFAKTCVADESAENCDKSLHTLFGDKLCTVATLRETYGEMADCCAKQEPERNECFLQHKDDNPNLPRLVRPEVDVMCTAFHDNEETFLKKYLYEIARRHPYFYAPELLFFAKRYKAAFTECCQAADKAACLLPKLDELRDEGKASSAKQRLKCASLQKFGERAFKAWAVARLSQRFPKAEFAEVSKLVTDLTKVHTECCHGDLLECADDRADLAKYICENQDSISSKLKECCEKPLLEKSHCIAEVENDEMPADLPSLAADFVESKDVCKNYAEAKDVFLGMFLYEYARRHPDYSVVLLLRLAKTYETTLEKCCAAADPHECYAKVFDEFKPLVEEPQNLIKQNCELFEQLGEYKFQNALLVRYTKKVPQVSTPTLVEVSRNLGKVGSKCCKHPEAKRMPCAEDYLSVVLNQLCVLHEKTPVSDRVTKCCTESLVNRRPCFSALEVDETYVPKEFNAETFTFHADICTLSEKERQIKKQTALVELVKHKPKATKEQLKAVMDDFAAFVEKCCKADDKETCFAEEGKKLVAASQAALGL

[3] = In vivo subcutaneous rat model (biocompatibility); parameters: species or system Sprague-Dawley rats; details: 0.5 mL subcutaneous injection
Protocol: Eight female Sprague-Dawley rats (Harlan Laboratories, Inc.) weighing 150-175 g were used for in vivo biocompatibility testing of the BSA gels. Four rats were randomly assigned into two groups for explant time points at 4 days and 4 weeks for evaluation of the acute and chronic inflammatory response. Animals were anesthetized using the inhalant machine Impact 6 (Vetequip Inc., Pleasanton, Calif.). Isofluorane was administered at a concentration of 2% with an oxygen flow rate of 2 L/min. Following anesthesia; the backs of the animals were shaved and then disinfected with […] followed by alcohol and a second […] wipe. Two incisions of approximately 1.5 cm in length were made at the implantation sites and subcutaneous pockets were created by blunt dissection in each location. 20 wt % Albumin hydrogels 184 (both PBSA and TBSA) were fabricated as described in the methods section 2.1 and were cut into disks (h=0.5 cm, r=0.6 cm) using a sterile biopsy punch. In one location, an acid leached 20 wt % PBSA gel disk was implanted into the subcutaneous pocket far from the incision site. At the other incision site, a 20 wt % TBSA gel disk was implanted. A control saline injection and pH 7.4 (20 wt %) BSA solution was injected into the back of the rat in the two remaining implantation sites. […]

Chain of N-form albumin (P02769 25-607): as the sequence (P02769 25-607) above

CC1=C(/C=C/C(C)=C/C=C/C(C)=C/C(=O)O)C(C)(C)CCC1 [atRA, All trans retinoic acid]
fluorescence quenching as a fraction of the initial fluorescence signal (N-form albumin; N-form albumin compared with F-form albumin): greater fluorescence quenching than F-form albumin | tryptophan fluorescence signal at 340 nm upon addition of atRA (N-form albumin; N-form albumin, pH 7.4, excitation 295 nm): rapidly quenched | tryptophan fluorescence signal at 340 nm upon addition of atRA (F-form albumin): rapidly quenched | HASMC migration [1]: inhibited; also recorded: significant (p<0.05) reduction in cell migration | binding energy [2]: -7.58 kcal/mol

BSA solution: control 20 wt % bovine serum albumin solution at pH 7.4, injected subcutaneously
inflammatory response ([3]; 4 weeks): decreased significantly | inflammatory response (number of cells in the subcutaneous pocket) ([3]; 4 days, compared to saline control): increased general inflammatory response
